This passage reports antioxidant property results from US20040033963A1, “Urea composition” (priority 2002, published 2004).

This assay can be described thus: Antioxidant screening: prevention or retardation of air oxidation of anthralin, hydroquinone or banana peel. The settings on record: screening methods: air oxidation of anthralin. On the procedure: The antioxidant property of some hydroxyacids, polyhydroxy acids and lactones are determined as follows. Oxidation by definition is removal of electrons or addition of oxygen. An antioxidant can be defined as a substance capable of preventing or inhibiting oxidation, or capable of disposing, scavenging, or suppressing formation or actions of peroxide, superoxide or free radicals. We have developed three simple assays to determine if a substance is an antioxidant or not. The antioxidant property is determined by using one of the following screening methods: prevention or retardation of air oxidation of (a) anthralin, (b) hydroquinone, or (c) banana peel. A freshly prepared anthralin solution or cream is bright yellow, and an air oxidized one is brownish or black. A hydroquinone solution or cream is colorless or white color, and an air-oxidized one is brownish or black. A freshly peeled banana peel is light yellow in color, and an oxidized one ranges in color from tan, dark tan, brown to brownish black.
Known antioxidants such as vitamin C and N-acetylcysteine may be used as the positive control in these screening methods.

In the case of `O=C1O[C@H]([C@@H](O)CO)C(O)=C1O` [ascorbic acid], the antioxidant property entry is listed as “antioxidants”.
As for `O=C(O)CC(O)(CC(=O)O)C(=O)O` [citric acid], the entry is “antioxidants”.
The same measure for `O=C1O[C@@H]([C@H](O)CO)[C@H](O)[C@H]1O` [galactonolactone]: “antioxidants”; for `O=C(O)[C@@H](O)[C@H]1OC(=O)[C@H](O)[C@H]1O` [glucarolactone]: “antioxidants”; for `O=C1O[C@@H]([C@H](O)[C@H](O)CO)[C@@H](O)C1O` (stereo partly shown) [glucoheptonolactone]: “antioxidants”.
As for `O=C(O)[C@H](O)[C@@H](O)[C@H](O)[C@H](O)CO` [gluconic acid], the entry is “antioxidants”; as for `O=C1O[C@H](CO)[C@@H](O)[C@H](O)[C@H]1O` [gluconolactone], “antioxidants”.
Turning to `O=C[C@H](O)[C@H]1OC(=O)[C@@H](O)[C@H]1O` [glucuronolactone], the antioxidant property entry is listed as “antioxidants”.
With `O=C1O[C@H]([C@H](O)CO)C(O)=C1O` [isoascorbic acid], the antioxidant property entry is given as “antioxidants”.
The same measure for `O=C(O)CC(C(=O)O)C(O)C(=O)O` (stereo not shown) [isocitric acid]: “antioxidants”; for `O=C(O)CC(O)C(=O)O` (stereo not shown) [malic acid]: “antioxidants”.
The same measure for `O=C1O[C@H](CO)[C@@H](O)[C@H]1O` [ribonolactone]: “antioxidants”.
As for `O=C(O)C(O)C(=O)O` [tartronic acid], the entry is “antioxidants”.
